ChEMBL document CHEMBL1158849, “New bioactive triterpenoids from Melia volkensii” (J Nat Prod, 1998)
In brackets after ≈: the same amount, converted by molar mass.

Assays:
MIA PaCa-2 = experiment: Cytotoxicity against human MIAPaCa2 cells after 7 days by MTT assay; assay type: functional; settings: MIA PaCa-2, 168 h, read-out: ED50 (the source's name)
HT-29 = experiment: Cytotoxicity against human HT-29 cells after 7 days by MTT assay; assay type: functional; settings: HT-29, 168 h, read-out: ED50 (the source's name)
PC-3 = experiment: Cytotoxicity against human PC3 cells after 7 days by MTT assay; assay type: functional; settings: PC-3, 168 h, read-out: ED50 (the source's name)
A498 = experiment: Cytotoxicity against human A498 cells after 7 days by MTT assay; assay type: functional; settings: A498, 168 h, read-out: ED50 (the source's name)
MCF7 = experiment: Cytotoxicity against human MCF7 cells after 7 days by MTT assay; assay type: functional; settings: MCF7, 168 h, read-out: ED50 (the source's name)
[1] = Toxicity against brine shrimp larvae; assay type: organism-based; settings: artemia, in vivo
A549 = experiment: Cytotoxicity against human A549 cells after 7 days by MTT assay; assay type: functional; settings: A549, 168 h, read-out: ED50 (the source's name)
Aedes aegypti = experiment: Cytotoxicity against yellow fever mosquitoes; assay type: functional

Row | Structure (SMILES) | EC50 (MIA PaCa-2) | EC50 (HT-29) | EC50 (PC-3) | EC50 (A498) | EC50 (MCF7) | LC50 [1] | EC50 (A549) | LC50 (Aedes aegypti)
1 | COc1cccc2c1C(=O)c1c(O)c3c(c(O)c1C2=O)C[C@@](O)(C(=O)CO)C[C@@H]3O[C@H]1C[C@H](N)[C@H](O)[C@H](C)O1 [DOXORUBICIN] | 0.0133 µg/mL (≈ 0.0245 µM) | 0.0351 µg/mL (≈ 0.0646 µM) | 0.0276 µg/mL (≈ 0.0508 µM) | 0.00424 µg/mL (≈ 0.0078 µM) | 0.253 µg/mL (≈ 0.465 µM) | – | – | –
2 | CC(=O)O[C@H]1C[C@@H](OC(C)=O)[C@@]2(C)CO[C@@H]3[C@@H](O)[C@@]4(C)C5=CC[C@@H](c6ccoc6)[C@]5(C)CC[C@@H]4[C@]1(C)[C@@H]32 | 3.06 µg/mL (≈ 5.97 µM) | 3.73 µg/mL (≈ 7.28 µM) | 2.78 µg/mL (≈ 5.42 µM) | 3.35 µg/mL (≈ 6.53 µM) | 2.42 µg/mL (≈ 4.72 µM) | 10 µg/mL (≈ 19.5 µM) | 3.29 µg/mL (≈ 6.42 µM) | 29.2 µg/mL (≈ 56.9 µM)
3 | CC(=O)O[C@H]1C[C@@H](OC(=O)c2ccccc2)C(C)(C)[C@@H]2C[C@@H](OC(C)=O)[C@@]3(C)C4=CC[C@@H](C5COC(=O)C5)[C@]4(C)CC[C@@H]3[C@@]12C (some centres not stated) [MELIANIN C] | 20.6 µg/mL (≈ 33.2 µM) | 18.1 µg/mL (≈ 29.1 µM) | 0.473 µg/mL (≈ 0.762 µM) | 26.5 µg/mL (≈ 42.7 µM) | 14.5 µg/mL (≈ 23.3 µM) | – | 21.9 µg/mL (≈ 35.2 µM) | –
4 | CC(=O)O[C@H]1C[C@@H](OC(=O)c2ccccc2)C(C)(C)[C@@H]2C[C@@H](OC(C)=O)[C@@]3(C)C4=CC[C@@H](C5COC(C)(C)C(=O)C(=O)C5)[C@]4(C)CC[C@@H]3[C@@]12C (some centres not stated) | 0.013 µg/mL (≈ 0.0188 µM) | 6.25 µg/mL (≈ 9.05 µM) | 0.0281 µg/mL (≈ 0.0407 µM) | 4.78 µg/mL (≈ 6.92 µM) | 6.13 µg/mL (≈ 8.87 µM) | – | 1.07 µg/mL (≈ 1.55 µM) | –
5 | CC(=O)O[C@H]1C[C@@H](OC(=O)c2ccccc2)C(C)(C)[C@@H]2C[C@@H](OC(C)=O)[C@@]3(C)C4=CC[C@@H](C5COC(C)(C)[C@@H](O)[C@H](O)C5)[C@]4(C)CC[C@@H]3[C@@]12C (some centres not stated) [MELIANIN B] | 2.09 µg/mL (≈ 3.01 µM) | 2.15 µg/mL (≈ 3.09 µM) | 0.393 µg/mL (≈ 0.566 µM) | 3.67 µg/mL (≈ 5.28 µM) | 3.29 µg/mL (≈ 4.73 µM) | > 100 µg/mL | 1.68 µg/mL (≈ 2.42 µM) | > 100 µg/mL
6 | CC(=O)O[C@@H]1C[C@H](OC(=O)c2ccccc2)[C@@]2(C)[C@H]3[C@H](OC[C@]13C)[C@@H](O)[C@@]1(C)C3=CC[C@@H](c4ccoc4)[C@]3(C)CC[C@@H]12 [MELIAVOLKININ] | 16.7 µg/mL (≈ 29.1 µM) | 28.1 µg/mL (≈ 48.8 µM) | 1.02 µg/mL (≈ 1.77 µM) | 26.9 µg/mL (≈ 46.8 µM) | 27.8 µg/mL (≈ 48.4 µM) | 5.37 µg/mL (≈ 9.34 µM) | 25.4 µg/mL (≈ 44.1 µM) | 59.7 µg/mL (≈ 104 µM)
7 | CC(=O)O[C@H]1C[C@@H](OC(=O)c2ccccc2)C(C)(C)[C@@H]2C[C@@H](OC(C)=O)[C@@]3(C)C4=CC(=O)[C@@H](C5COC(C)(C)C(=O)C(=O)C5)[C@]4(C)CC[C@@H]3[C@@]12C (some centres not stated) [16,23,24-TRIKETOMELIANIN B] | 3.32 µg/mL (≈ 4.71 µM) | 6.36 µg/mL (≈ 9.02 µM) | 2.1 µg/mL (≈ 2.98 µM) | 4.15 µg/mL (≈ 5.89 µM) | 2.61 µg/mL (≈ 3.7 µM) | – | 18.2 µg/mL (≈ 25.8 µM) | –
